Patent US11999720B2, “Pyrazolylacylpyrazoline compounds and method for treating pain” (THE TRUSTEES OF INDIANA UNIVERSITY, priority 2018, dated 2024)

How the values were obtained:
[1] = test system: tibial nerve injury (TNI) model of neuropathic pain; assay: tibial nerve injury (TNI) model of neuropathic pain, von Frey withdrawal threshold; assay type: in vivo, rat; conditions: for withdrawal threshold to von Frey stimulation: 1 h, 28 days after TNI, before dosing 33.1±5.9, pre-surgery 68.7±3.7
Procedure: Pathogen-free, adult, female Sprague Dawley (weight at testing 150-200 g; Harlan-Sprague-Dawley, Indianapolis, IN) were housed in a climate-controlled room on a 12-hour light/dark cycle and were allowed to have food and water ad libitum. All procedures were approved by the Indiana University Animal Care and Use Committee and conformed to the guidelines of the National Institutes of Health (publication no. 80-23, 1966) for the use of laboratory animals. All behavioral experiments were conducted by experimenters blinded to the treatment conditions and compound identity. The experiments were replicated a minimum of 2 times with independent cohorts of animals.
For in vivo studies, the inventive compounds were freshly prepared saline (0.9%) on the day of the experiment. Morphine sulfate salt (Sigma-Aldrich, St. Louis, MO) was freshly prepared on the day of the experiment in saline. […]
The inventive compounds were assessed with the tibial nerve injury (TNI) model of neuropathic pain 28 days after surgery. Using isoflurane anesthesia (4% induction and 2% maintenance), the right sciatic nerve was isolated under aseptic surgical conditions by blunt dissection of the femoral biceps muscle and the tibial nerve was tightly ligated with 5-0 silk and transected distal to the ligation. Additional 2 to 3 mm of distal nerve stump was removed to prevent reinnervation by the proximal nerve. The overlying muscle and skin was then sutured in 2 separate layers. Sham-injured animals were subjected to all preceding procedures with the exception of ligation and transection. All animals were returned to the housing facility and allowed to survive for 28 d. Mechanical stimuli were applied with 7 filaments, each differing in the bending force delivered (10, 20, 40, 60, 80, 100, and 120 mN), and fitted with a flat tip and fixed diameter of 0.2 mm. The filaments were tested in the order of ascending force, with each filament delivered for 1 second. Withdrawal threshold was determined by sequentially increasing and analyzed with Hill equation was fitted to the function (Origin version 6.0; Microcal Software) relating the percentage of indentations eliciting a withdrawal to the force of indentation.

[2] = test system: T1, CaV2.2 channels in HEK-CaV2.2 cells (Rattus norvegicus); assay: whole cell patch-clamp, CaV2.2 currents in HEK-CaV2.2 cells; assay type: cell-based
T1 construct: expressed in transfected cells
T1 sequence (P54287 whole entry): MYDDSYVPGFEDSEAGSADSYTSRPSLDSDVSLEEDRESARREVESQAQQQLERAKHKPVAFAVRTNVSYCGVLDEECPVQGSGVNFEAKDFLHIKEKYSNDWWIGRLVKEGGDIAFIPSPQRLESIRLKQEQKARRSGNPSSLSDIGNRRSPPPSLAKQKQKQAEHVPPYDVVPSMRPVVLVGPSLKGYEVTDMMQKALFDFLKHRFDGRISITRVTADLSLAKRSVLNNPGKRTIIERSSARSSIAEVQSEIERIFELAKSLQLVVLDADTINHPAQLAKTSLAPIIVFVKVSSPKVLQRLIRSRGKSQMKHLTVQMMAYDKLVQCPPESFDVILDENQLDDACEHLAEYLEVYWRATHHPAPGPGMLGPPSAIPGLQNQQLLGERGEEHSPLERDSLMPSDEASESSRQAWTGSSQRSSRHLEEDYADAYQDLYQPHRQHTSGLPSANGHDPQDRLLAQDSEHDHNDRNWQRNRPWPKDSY
Procedure: The G-V curves are shown.
HEK-CaV2.2 cells were pretreated with various concentrations of compound 14 for 48 hours. CaV2.2 currents were acquired during 20-ms depolarizing pulses, and the current densities were calculated as a ratio of the peak current amplitude and each cell capacitance (0.1 μM, n=6; 1 μM, n=7; 10 μM, n=8; 50 μM, n=12). The line is the fit of the data to the four-parameter logistic function.
EK-CaV2.2 cells were pretreated with the indicated compounds for 48 hours. *** corresponds to […].
FIGS. 8 and 9 show the effects of 2 and 14 on the voltage dependence of activation of CaV2.2 channels in HEK-CaV2.2 cells pretreated with the vehicle or the indicated compounds for 48 hours. […] The gray vertical lines are the error bars (S.E.M.).
FIGS. 10 and 11 show acute effects of DMSO and 14 on the voltage dependence of activation of CaV2.2 channels in HEK-CaV2.2 cells. […] The gray vertical lines are the error bars (S.E.M.). “ns”—stands for not significant.
(§1) The whole cell patch-clamp technique was used to record CaV2.2 currents in HEK-CaV2.2 cells and rat DRG neurons. HEK293 cells that stably expressed rat N-type CaV2.2α1B, rat CaVβ3, and rat […] were utilized. Cells were grown in Dulbecco's modified Eagle's medium (DMEM) supplemented with 10% FBS, 50 units penicillin, 50 μg/ml streptomycin, 5 μg/ml blasticidin, 5 μg/ml hydromycin and 25 μg/ml zeozin at 37° C. in a humidified atmosphere of 95% air and 5% CO2. For patch clamp experiments, HEK-CaV2.2 cells were plated on glass coverslips and were cultured for 24-48 h. All animal procedures were performed in accordance to the NIH guide and were approved by the Indiana University School of Medicine Institutional Animal Care and Use Committee. Young adult Sprague Dawley rats were anesthetized (3% isoflurane) and then decapitated. The spinal column was removed, cut open, and dorsal root ganglia were harvested from the Lumbar L4-L6 vertebral levels. The ganglia were incubated in DMEM containing collagenase (1 mg/ml, Worthington: LS04194) and protease (1 mg/ml, Worthington: LS02104) for 30-60 minutes, and DRG neurons were dissociated by triturating in DMEM supplemented with 10% FBS. The isolated DRG neurons were plated on glass coverslips coated with growth factor reduced Matrigel (Thermo Fisher Scientific, Waltham, MA) and were cultured in Eagle's minimum essential medium (Invitrogen, CA) supplemented with 0.2% BSA and 20 ng/ml NGF-2.5S (BD Biosciences, Bedford, MA) at 37° C. in a water-jacketed 5% CO2 incubator overnight for the patch-clamp experiments.

[3] = test system: acute thermal nociception in the rat; assay: acute thermal nociception in the rat (Hargreaves' plantar test); assay type: in vivo; conditions: for paw withdrawal latency (PWL), analgesic effect: rats, n=6 per group, FIG. 12
Procedure: Pathogen-free, adult, female Sprague Dawley (weight at testing 150-200 g; Harlan-Sprague-Dawley, Indianapolis, IN) were housed in a climate-controlled room on a 12-hour light/dark cycle and were allowed to have food and water ad libitum. All procedures were approved by the Indiana University Animal Care and Use Committee and conformed to the guidelines of the National Institutes of Health (publication no. 80-23, 1966) for the use of laboratory animals. All behavioral experiments were conducted by experimenters blinded to the treatment conditions and compound identity. The experiments were replicated a minimum of 2 times with independent cohorts of animals. For in vivo studies, the inventive compounds were freshly prepared saline (0.9%) on the day of the experiment. […] Louis, MO) was freshly prepared on the day of the experiment in saline. All drugs were dissolved in 1 mL solution and administered by intraperitoneal (i.p.) injections 1 h prior to all behavioral assays. To evaluate the PWT to thermal stimulation, the Hargreaves' plantar test apparatus (Ugo Basile, Varese, Italy) was used. Measurements of the withdrawal latency of the paw began after the rats were habituated to the testing environment (IR setting=70). The measurements were repeated four times, at 5 min intervals and the initial pair of measurements was not used. The averages of the three remaining pairs of measurements taken were employed as data. A model of behavioral sensitivity using thermal stimulus was used to determine the acute analgesic properties of the compounds of the present invention.

[4] = biological target: T2, CaVβ3 (Rattus norvegicus, UniProt P54287); assay: label-free microscale thermophoresis (MST), direct binding; conditions: direct binding to CaVβ3, read-out: dissociation constant (Kd)
T2 construct: made in house; host or cells: E. coli BL21(DE3)
T2 sequence (P54287 whole entry): as above
Procedure: Curve fitting analysis led to a dissociation constant of 3.6±1.1 μM.
(§2) The plasmid of pET28a-CaV2.2β3 subunit was transformed into competent E. Coli BL21(DE3) strain. Culture was grown in LB medium at 37° C. to an OD600 of approximately 0.6 and then induced with 0.5 mM IPTG at 16° C. for 16 h. Cells were collected by centrifugation and lysed by microfluidizer in lysis buffer (phosphate buffer, pH 7.6, 2 mM DTT). The His-CaVβ3 protein was purified at 4° C. using Ni-IMAC chromatography (His-Trap HP, GE Healthcare) and eluted with 500 mM imidazole in lysis buffer with a gradient method. After the fractions consisted of His-CaVβ3 was combined and concentrated, the protein was further purified using size exclusion chromatography (Superdex 200 pg, GE Healthcare) in PBS with 2 mM DTT.
Direct binding of compound 6 to CaVβ3 was confirmed with label-free microscale thermophoresis (MST).

[5] = biological target: T3, CaV2.2 currents in rat DRG neurons (Rattus norvegicus, UniProt Q02294); assay: whole cell patch-clamp, CaV2.2 currents in rat DRG neurons; assay type: cell-based; conditions: 50 μM acute
T3 construct: from tissue; host or cells: dissociated dorsal root ganglion neurons (L4-L6) of young adult Sprague Dawley rats
T3 sequence (P54287 whole entry partner): as the sequence (P54287 whole entry) above
T3 sequence (Q02294 whole entry): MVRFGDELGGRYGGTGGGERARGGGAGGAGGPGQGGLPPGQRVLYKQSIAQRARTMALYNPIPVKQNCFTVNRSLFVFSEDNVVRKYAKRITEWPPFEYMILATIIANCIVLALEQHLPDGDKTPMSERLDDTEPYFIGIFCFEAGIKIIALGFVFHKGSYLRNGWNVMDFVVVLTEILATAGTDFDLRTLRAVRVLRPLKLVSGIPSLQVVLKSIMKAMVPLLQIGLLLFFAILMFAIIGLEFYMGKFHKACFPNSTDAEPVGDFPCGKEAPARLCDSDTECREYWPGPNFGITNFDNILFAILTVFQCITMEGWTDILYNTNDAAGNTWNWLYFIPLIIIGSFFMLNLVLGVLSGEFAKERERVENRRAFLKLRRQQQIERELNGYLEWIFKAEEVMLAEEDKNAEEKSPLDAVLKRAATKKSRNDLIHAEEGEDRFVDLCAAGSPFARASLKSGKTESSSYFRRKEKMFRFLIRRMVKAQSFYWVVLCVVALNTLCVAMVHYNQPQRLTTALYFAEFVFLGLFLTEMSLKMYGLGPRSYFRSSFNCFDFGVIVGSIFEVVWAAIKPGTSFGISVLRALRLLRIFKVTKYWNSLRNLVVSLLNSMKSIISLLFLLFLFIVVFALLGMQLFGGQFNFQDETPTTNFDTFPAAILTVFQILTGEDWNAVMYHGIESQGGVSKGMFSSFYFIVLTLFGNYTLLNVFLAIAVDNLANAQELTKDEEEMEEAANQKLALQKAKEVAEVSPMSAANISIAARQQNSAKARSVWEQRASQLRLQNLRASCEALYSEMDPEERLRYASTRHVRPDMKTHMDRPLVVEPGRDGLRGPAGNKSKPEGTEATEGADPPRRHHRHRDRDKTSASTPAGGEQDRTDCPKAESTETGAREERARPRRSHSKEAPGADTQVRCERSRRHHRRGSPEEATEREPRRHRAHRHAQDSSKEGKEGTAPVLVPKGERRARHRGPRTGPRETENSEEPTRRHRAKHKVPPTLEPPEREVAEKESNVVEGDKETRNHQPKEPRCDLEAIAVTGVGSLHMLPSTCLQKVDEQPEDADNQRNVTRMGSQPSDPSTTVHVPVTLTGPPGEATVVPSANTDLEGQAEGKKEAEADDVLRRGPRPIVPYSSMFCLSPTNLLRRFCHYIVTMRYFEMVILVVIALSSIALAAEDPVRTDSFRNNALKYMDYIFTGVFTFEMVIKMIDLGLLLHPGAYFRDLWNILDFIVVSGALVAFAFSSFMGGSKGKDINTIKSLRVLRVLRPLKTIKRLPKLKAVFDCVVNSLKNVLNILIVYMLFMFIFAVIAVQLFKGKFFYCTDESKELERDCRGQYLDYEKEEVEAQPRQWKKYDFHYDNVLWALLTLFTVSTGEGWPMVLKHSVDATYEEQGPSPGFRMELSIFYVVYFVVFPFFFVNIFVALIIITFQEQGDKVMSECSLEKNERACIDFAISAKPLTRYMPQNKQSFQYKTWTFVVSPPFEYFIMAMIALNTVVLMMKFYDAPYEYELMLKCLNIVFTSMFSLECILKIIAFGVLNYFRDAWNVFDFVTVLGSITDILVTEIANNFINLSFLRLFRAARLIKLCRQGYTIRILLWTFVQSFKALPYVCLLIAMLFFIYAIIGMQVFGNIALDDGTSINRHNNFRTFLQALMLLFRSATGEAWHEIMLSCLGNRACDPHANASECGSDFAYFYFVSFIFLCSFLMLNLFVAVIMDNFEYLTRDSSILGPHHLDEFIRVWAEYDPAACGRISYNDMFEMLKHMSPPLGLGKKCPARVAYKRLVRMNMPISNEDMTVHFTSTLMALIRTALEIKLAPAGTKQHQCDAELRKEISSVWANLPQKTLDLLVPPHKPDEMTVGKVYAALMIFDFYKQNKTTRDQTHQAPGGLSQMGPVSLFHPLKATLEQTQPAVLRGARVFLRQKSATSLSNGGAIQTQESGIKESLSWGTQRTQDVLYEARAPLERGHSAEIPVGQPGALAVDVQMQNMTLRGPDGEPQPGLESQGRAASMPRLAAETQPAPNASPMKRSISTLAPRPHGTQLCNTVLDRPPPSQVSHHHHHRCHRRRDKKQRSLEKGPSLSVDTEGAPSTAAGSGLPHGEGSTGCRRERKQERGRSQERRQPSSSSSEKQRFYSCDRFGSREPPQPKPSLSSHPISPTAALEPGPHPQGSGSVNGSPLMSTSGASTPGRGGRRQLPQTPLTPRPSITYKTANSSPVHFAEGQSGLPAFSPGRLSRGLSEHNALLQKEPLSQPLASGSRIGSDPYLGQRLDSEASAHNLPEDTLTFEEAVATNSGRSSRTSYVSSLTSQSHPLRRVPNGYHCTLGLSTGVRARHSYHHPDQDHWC
Procedure: as §1, with “The isolated DRG neurons were plated on glass coverslips coated with growth factor reduced Matrigel (Thermo Fisher Scientific, Waltham, MA) and were cultured in Eagle's minimum essential medium (Invitrogen, CA) supplemented with 0.2% BSA and 20 ng/ml NGF-2.5S (BD Biosciences, Bedford, MA) at 37° C. in a water-jacketed 5% CO2 incubator overnight for the patch-clamp experiments.” left out

[6] = biological target: T4, CaVβ3 Arg-307-Ala (Rattus norvegicus, UniProt P54287, R307A); assay: site-directed mutagenesis: displacement of fluorescently-labeled CaVα1-AID bound to mutated CaVβ3; assay type: binding
T4 construct: His; made in house
T4 sequence (P54287 whole entry R307A): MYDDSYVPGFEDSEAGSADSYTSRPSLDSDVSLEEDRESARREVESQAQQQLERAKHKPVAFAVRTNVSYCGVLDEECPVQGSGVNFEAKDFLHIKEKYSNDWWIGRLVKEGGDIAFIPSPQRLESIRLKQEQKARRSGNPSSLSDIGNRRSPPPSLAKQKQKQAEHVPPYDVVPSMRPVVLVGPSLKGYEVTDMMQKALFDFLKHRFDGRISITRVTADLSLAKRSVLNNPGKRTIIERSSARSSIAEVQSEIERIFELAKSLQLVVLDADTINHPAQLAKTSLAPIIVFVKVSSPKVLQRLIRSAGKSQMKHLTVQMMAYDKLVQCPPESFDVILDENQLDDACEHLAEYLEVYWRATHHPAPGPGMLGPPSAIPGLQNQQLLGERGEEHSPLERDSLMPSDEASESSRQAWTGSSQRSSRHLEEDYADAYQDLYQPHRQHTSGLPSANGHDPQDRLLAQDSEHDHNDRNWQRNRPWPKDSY
Text: (§3) Compound 6 forms a salt bridge interaction with Arg-307 through a benzoic acid moiety. […] Arg-307 was mutated to alanine.

[7] = biological target: T5, CaVα1CaVβ3 interaction (Rattus norvegicus, UniProt P54287); assay: fluorescence polarization assay, inhibition constant; assay type: binding; conditions: fluorescence polarization assay
T5 construct: made in house; host or cells: E. coli BL21(DE3)
T5 sequence (P54287 whole entry): as the sequence (P54287 whole entry) above
Procedure: as §2, §3

Structure (SMILES) | withdrawal threshold to von Frey stimulation ([1]; 10 mg/kg ip) [mN] | steady-state inactivation V0.5, inact ([2]; 50 μM, pretreated 48 hours) [mV] | density of CaV2.2 currents ([2]; 50 μM, pretreated 48 hours, depolarizing pulses to 0 mV from holding potential −80 mV, DMSO −74.8±7.0) [pA/pF] | mean half-activation potential V0.5, act ([2]; pretreated 48 hours, DMSO 8.7±1.1) [mV] | effect on CaV2.2 currents amplitudes ([2]; used acutely or as a long-term treatment, HEK-CaV2.2 cells) | paw withdrawal latency (PWL), analgesic effect [3] | Kd [4] [nM] | effect on behavior (tactile hypersensitivity) ([1]; 1 mg/kg and 0.1 mg/kg, at 1 or 4 hours) | attenuation of tactile hypersensitivity at 4 h ([1]; 10 mg/kg ip, 4 h after administration) | duration of reversal of mechanical hypersensitivity ([1]; 10 mg/kg, 4 weeks after TNI) | effect on CaV2.2 currents, acute application ([2]; 50 μM acute, HEK-CaV2.2 cells) | CaV2.2 current density ([2]; 50 μM, pretreated 48 hours, DMSO −98.0±12.5) [pA/pF] | mean half-activation potential ([2]; pretreated 48 hours (50 μM per FIG. 4), DMSO 6.7±0.6) [mV] | effect on CaV2.2 currents, acute application [5] | inhibition of the protein-protein interaction with CaVβ3 Arg-307-Ala (displacement of fluorescently-labeled CaVα1-AID) [6] | response latency to thermal stimulus ([3]; systemic administration, 1 or 10 mg/kg) | Ki [7] [nM]
COc1ccc(C2=NN(C(=O)CCC(C)=O)C(c3cn(-c4ccccc4)nc3-c3ccc(C)cc3)C2)cc1 (stereo not shown) [Compound 2, 1-(5-(4-methoxyphenyl)-1′-phenyl-3′-(p-tolyl)-3,4-dihydro-1′H,2H-[3,4′-bipyrazol]-2-yl)pentane-1,4-dione] | 32±2.6 | −61.6±2.0 | −79.2±8.2 | 8.5±1.4 | did not affect | lack of analgesic effect | – | – | – | – | – | – | – | – | – | – | –
COc1ccc(C2=NN(C(=O)c3cccc(C(=O)O)c3)C(c3cn(-c4ccccc4)nc3-c3ccc(C)cc3)C2)cc1 (stereo not shown) [Compound 6, 3-(5-(4-methoxyphenyl)-1′-phenyl-3′-(p-tolyl)-3,4-dihydro-1′H,2H-[3,4′-bipyrazole]-2-carbonyl)benzoic acid] | 62.2±3.1 | – | – | – | – | lack of analgesic effect | 3600 ± 1100 | did not alter behavior | not at 4 h | limited to 1 h | did not affect | −28.7±5.0 | 9.4±1.2 | did not affect | does not inhibit | failed to elicit changes | 1400 ± 100
